The subject of data set [1] is C57BL/6 mice with CCl4-induced acute liver injury. The experiment in a line: CCl4-induced acute liver injury mouse model. Format: in vivo. The note with it: 1 μmol/kg twice daily, 2 days after CCl4. As for the experimental part: All the animal experiments were carried out according to the ethical guidelines for the Care and Use of Laboratory Animals (Utrecht University, The Netherlands). CCl4 was prepared in olive oil ([…], 63.76 mg/mL) and AP8ii (1 μmol/kg) and R243 (1 μmol/kg) were prepared in hydroxypropyl-β-cyclodextrin (10%) and Kolliphor HS15 (5%) containing MilliQ water (85%). Male C57BL/6 mice (12 weeks old) received a single intraperitoneal injection (IP) of olive oil (healthy n = 9) or 0.2 mL/kg (318.8 mg/kg) CCl4 (vehicle n = 9, AP8 n = 9 and R243 n = 9) on Day 1. On Days 2 and 3, the CCl4-treated mice received vehicle, 1 μmol/kg AP8 (1.157 mg/kg) or 1 μmol/kg R243 (0.35744 mg/kg) twice daily. […] Total alanine aminotransferase (ALT) and aspartate transferase (AST) levels were determined in the plasma samples as per standard biochemical assays.
Cell suspension were prepared from freshly collected liver tissues using the TissueGrinder (TG, Fast Forward Discoveries GmbH, Mannheim, Germany) as detailed earlier. […] Cells were washed 3 times, stained with rat anti-mouse fluorescent antibodies (CD45-APC, CD11b-PE and F4/80-PE/Cy7, 0.2 μg/100 μL, Biolegend) for 1 h, Hoechst 33,342 (10 μg/100 μL, Thermo Fisher) for 30 min, and analyzed within 7 days. […]

A short description of data set [2]: AP8ii peptide stability in human serum by analytic HPLC. The conditions noted are these: 37 °C. Type of data set: in vitro ADME. How it is done: Analytic HPLC measurements were conducted in an Agilent 1260 Infinity II Liquid Chromatography system, equipped with a Polaris C18 column and a UV–Vis detector. The samples were analyzed with a mobile phase of MilliQ (solvent A) and acetonitrile (solvent B), both containing 0.1% v/v of formic acid, using a 1 mL/min flow rate within a run of 22 min. The gradient ramp was from 1% solvent B up to 60% solvent B in 15 min, then from 60% solvent B to 99% solvent in 5 min, finally 2 min at 99% of solvent B. Each injection used 50 μL, out of the 150 μL in the vial. Detection was performed at λ = 280 nm. Integration of the signals (e.g., peak area) in the chromatogram was performed using OpenLab CDS (data analysis software).
An adapted protocol based on[43] was followed for analysis. In a vial, 475 μL of 1 mmol/L peptide solution was mixed with 50 μL of human serum (making 0.95 mmol/L peptide in 10 vol% serum). The sample was incubated at 37 °C for increasing time. At 0, 1, 2, 4 and 24 h, an aliquot of 125 μL was taken from the vial, quenched with 50 μL of 10% TFA solution in MilliQ and centrifuged for 1 min at 13,000 rpm. Then 150 μL of the supernatant was taken for analysis. Control samples containing only peptide (e.g., without serum) and only human serum (e.g., without peptide) were included. All measurements were conducted in duplicates. Data of peak absolute area were expressed as mean ± standard deviation (SD).

Data set [3] relates to RAW264.7 macrophages. Put plainly: Alamar Blue cell viability assay, RAW264.7. Type of data set: cell-based, mouse. The note with it: 10 μmol/L, 24 h, with or without LPS/IFNγ; three independent experiments. How it is done:
To assess the effects of AP8ii on the cell viability, cells were plated in 24-well plates, cultured overnight and incubated with AP8ii or R243 (10 μmol/L) with or without 100 ng/mL LPS and 10 ng/mL IFNγ (for 24 h, cell viability assays were performed using Alamar Blue reagent (Invitrogen, Carlsbad, CA, USA) as per manufacturer's instructions. The results are represented as% cell viability normalized to untreated control cells (at 100%). All measurements were performed in triplicates in three independent experiments.
For orientation: Resazurin is reduced to fluorescent resorufin, in cell work by metabolically active cells.

Data set [4] concerns the target T1, CCR8 on LPS/IFNγ-activated RAW264.7 macrophages (Mus musculus, UniProt P56484).
T1 construct: endogenous in cells
T1 sequence (P56484 1-353): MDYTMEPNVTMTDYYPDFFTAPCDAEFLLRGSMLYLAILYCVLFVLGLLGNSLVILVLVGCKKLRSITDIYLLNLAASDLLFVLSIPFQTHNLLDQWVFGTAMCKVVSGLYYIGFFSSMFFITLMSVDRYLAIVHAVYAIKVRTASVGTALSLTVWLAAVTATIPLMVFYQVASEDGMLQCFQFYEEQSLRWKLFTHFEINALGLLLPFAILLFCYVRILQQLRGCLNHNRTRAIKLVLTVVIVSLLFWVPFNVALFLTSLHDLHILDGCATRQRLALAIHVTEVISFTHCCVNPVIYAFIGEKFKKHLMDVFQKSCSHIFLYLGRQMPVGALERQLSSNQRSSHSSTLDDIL
Put plainly: Competitive peptide binding study (co-incubation and pre-incubation). How it is done:
For competitive studies, the peptide binding protocol was used however competition with R243, CCL1 and anti-CCR8 antibody was performed. Two types of competitive studies were performed—co-incubation and pre-incubation where macrophages were either co-incubated with equimolar concentration of R243 (10 μmol/L), CCL1 (100 ng/mL) or anti-CCR8 antibody (5.0 μg/mL, Cat. No. MAB-8324, Novus biologicals, […], USA) and AP8ii (10 μmol/L), or preincubated with R243 (10 μmol/L), CCL1 (100 ng/mL) or anti-CCR8 antibody (5.0 μg/mL) for 2 h followed by addition of AP8ii (10 μmol/L) for an additional 4 h. Finally, images were captured at 10 ×, 20 × and 40 ×, and RhB intensity was analyzed using ImageJ software and normalized to the number of nuclei using DAPI.

Where no end group is shown, it is not given here.

For “YEWRFYHG [AP8ii, Tyr-Glu-Trp-Arg-Phe-Tyr-His-Gly]”, the “body weight during treatment” value in data set [1] is recorded as “increased”. Further, in data set [2] (0.95 mmol/L peptide in 10 vol% human serum, 24 h, TFA quench, analytic HPLC C18, UV 280 nm, peak area, duplicates, read-out: peptide remained intact after 24 h of incubation), the remaining at 24 h, 0.95 mmol/L is over 82%. In addition, the half-life at 0.95 mmol/L in data set [2] (0.95 mmol/L peptide in 10 vol% human serum, analytic HPLC UV 280 nm, read-out: t1/2 in human serum) was over 24 h. In addition, in data set [2] (10 vol% human serum, first 4 h, analytic HPLC UV 280 nm), the “stability on exposure to serum (peak absolute area)” value is recorded as “remained stable during the first 4 h”. Also, the “toxicity (Alamar blue-based metabolic assay)” value in data set [3] is listed as “no significant toxicity”.

B1: CCL1: Human Recombinant I-309 (CCL1), CCR8 ligand (300-37-B, Tebu-bio) (protein, UniProt P22362 24-96, looked up)
C-C motif chemokine 1: KSMQVPFSRCCFSFAEQEIPLRAILCYRNTSSICSNEGLIFKLKRGKEACALDTVGWVQRHRKMLRHCPSKRK
Turning to B1, the “AP8ii binding blocked, co-incubation study” value in data set [4] (competitor (R243 10 μmol/L, CCL1 100 ng/mL, anti-CCR8 antibody 5.0 μg/mL) co-incubated with RhB-labeled AP8ii 10 μmol/L 4 h) was about 20%. In addition, the “AP8ii binding blocked, pre-incubation study” value in data set [4] (competitor (R243 10 μmol/L, CCL1 100 ng/mL, anti-CCR8 antibody 5.0 μg/mL) preincubated 2 h, then RhB-labeled AP8ii 10 μmol/L 4 h) is on record as about 30%.

The values are drawn from paper PMC12137978, “Design, molecular characterization and therapeutic investigation of a novel CCR8 peptide antagonist that attenuates acute liver injury by inhibiting infiltration and activation of macrophages” (Acta Pharmaceutica Sinica. B, 2025).
